Activity calls are given as the source filed them.
What was measured:
Mus musculus [1] = experiment: Anticonvulsant activity in CD-1 mouse assessed as protection against maximal electroshock-induced tonic extension of hind limbs at 300 mg/kg, po after 0.5 hrs; format: functional, organism-based; design: dose 300 mg/kg; conditions: Hindlimb
Mus musculus [2] = experiment: Anticonvulsant activity in CD-1 mouse assessed as protection against maximal electroshock-induced tonic extension of hind limbs at 300 mg/kg, po after 2 hrs; format: functional, organism-based; design: dose 300 mg/kg; conditions: Hindlimb
Mus musculus [3] = experiment: Anticonvulsant activity in CD-1 mouse assessed as protection against maximal electroshock-induced tonic extension of hind limbs at 100 mg/kg, po after 2 hrs; format: functional, organism-based; design: dose 100 mg/kg; conditions: Hindlimb
Mus musculus [4] = experiment: Anticonvulsant activity in CD-1 mouse assessed as protection against maximal electroshock-induced tonic extension of hind limbs at 100 mg/kg, po after 0.5 hrs; format: functional, organism-based; design: dose 100 mg/kg; conditions: Hindlimb
Carbonic anhydrase 2 = Carbonic anhydrase 2 (Homo sapiens, UniProt P00918)
Description: Inhibition of human carbonic anhydrase 2 by CO2 hydration assay

Rattus norvegicus [5] = experiment: Anticonvulsant activity in Sprague-Dawley rat hippocampal kindling model assessed as reduction in global seizures at >26 mg/kg, ip treated 15 for mins post suprathreshold-stimulation; format: functional, organism-based; conditions: Hippocampus
Rattus norvegicus [6] = experiment: Anticonvulsant activity in ip dosed Sprague-Dawley rat hippocampal kindling model assessed as suppression of seizure activity treated 15 for mins post suprathreshold-stimulation; format: functional, organism-based; conditions: Hippocampus
Mus musculus [7] = species: Mus musculus
Description: (§1) Anticonvulsant activity in po dosed CF-1 mouse assessed as protection against maximal electroshock-induced tonic extension of hind limbs measured at 1 hr

Mus musculus [8] = experiment: Anticonvulsant activity in CD-1 mouse assessed as protection against maximal electroshock-induced tonic extension of hind limbs at 300 mg/kg, ip after 0.5 hrs; format: functional, organism-based; design: dose 300 mg/kg; conditions: Hindlimb
Rattus norvegicus [9] = species: Rattus norvegicus; experiment: Toxicity in Sprague-Dawley rat assessed as ataxia by Irwin test; format: organism-based; conditions: in vivo
Mus musculus [10] = species: Mus musculus; experiment: animal or person; conditions: CF-1, Hindlimb, po, 1 h
Description: as §1

Mus musculus [11] = experiment: Anticonvulsant activity in intravenous PTZ-induced CF-1 mouse assessed as increase in seizure threshold for clonus at 182 mg/kg, po treated for 15 mins prior to PTZ-challenge relative to control; format: functional
Mus musculus [12] = experiment: Anticonvulsant activity in intravenous PTZ-induced CF-1 mouse assessed as increase in seizure threshold for twitch at 182 mg/kg, po treated for 15 mins prior to PTZ-challenge relative to control; format: functional
[13] = Neurotoxicity in po dosed Sprague-Dawley rat by rotarod test; format: toxicity, organism-based; conditions: in vivo

NS(=O)(=O)NCCC1COc2ccccc2O1 (stereo not drawn)
Activity (Mus musculus [1]): Active
Activity (Mus musculus [2]): inactive
Activity (Mus musculus [3]): inactive
Activity (Mus musculus [4]): inactive

CN(C)S(=O)(=O)NCC1COc2ccccc2O1 (racemic)
IC50 (Carbonic anhydrase 2): > 1000 µM
Activity (Mus musculus [2]): inactive

NS(=O)(=O)NC[C@H]1COc2c(F)cccc2O1
Activity (Mus musculus [2]): Active
Activity (Mus musculus [3]): inactive

NC(=O)N1c2ccccc2C=Cc2ccccc21
Activity (Rattus norvegicus [5]): Active
Activity (Rattus norvegicus [6]): Active

NS(=O)(=O)NC[C@H]1COc2cc(Br)ccc2O1
Activity (Mus musculus [1]): inactive
Activity (Mus musculus [2]): Active

CC1(C)O[C@@H]2[C@@H](CO[C@@]3(COS(N)(=O)=O)OC(C)(C)O[C@@H]23)O1 [TOPIRAMATE]
Activity (Rattus norvegicus [6]): inactive
ED50 (Mus musculus [7]): 43.8 mg/kg

COc1cccc2c1O[C@@H](CNS(N)(=O)=O)CO2
IC50 (Carbonic anhydrase 2): 300 µM
Activity (Mus musculus [3]): inactive
Activity (Mus musculus [4]): inactive

CCC1(C)CC(=O)NC1=O (stereo not drawn)
Activity (Rattus norvegicus [6]): inactive

NS(=O)(=O)NC[C@@H]1COc2ccccc2O1
Activity (Mus musculus [8]): Active
Activity (Rattus norvegicus [9]): Toxic

NS(=O)(=O)NC[C@H]1COc2c(Cl)cccc2O1
IC50 (Carbonic anhydrase 2): 220 µM
ED50 (Mus musculus [10]): 124 mg/kg
Activity (Mus musculus [4]): inactive

NS(=O)(=O)NCC1COc2ccccc2O1 (racemic)
Activity (Mus musculus [11]): 59%
Activity (Mus musculus [12]): 41%
Activity (Mus musculus [8]): Active
TD50 [13]: 182 mg/kg

CN(CC1COc2ccccc2O1)S(N)(=O)=O (racemic)
Activity (Mus musculus [1]): Active

Source: ChEMBL document CHEMBL3091339 (J Med Chem, 2013)
